Reference: patent US7662851B2, “Use of specific cyklolignans” (Axelar AB, priority 2001, dated 2010)

Assays:
[1] = nude, mouse, in vivo, ip, 28 mg/kg
[2] = system: K562/Vcr30 chronic myeloid leukemia cells; assay: Leukemia cell viability, K562/Vcr30; type: cell-based, human; settings: Homo sapiens; K562/Vcr30, 72 h; read-out: IC50 for cell viability
Experimental: (§1) The human chronic myeloid leukemia K562/S and K562/Vcr30 lines and the acute myeloid leukemia cell lines HL60/0 and HL60/Nov were obtained from ATCC. The K562/S and […] are wild type (non-resistant) cells, whereas K562/Vcr30 and HL60/Nov are cytostatic-resistant sublines. All leukemia cell lines were cultured in RPMI 1640 medium supplemented with 10% fetal bovine serum and with 2 mM L-glutamine, benzylpenicillin (100 U/ml) and streptomycin (100 μg/ml). The cells were grown in tissue culture flasks maintained at 95% air/5% CO2 atmosphere at 37° C. in a humidified incubator. For the experiments cells were cultured in 60-mm plastic dishes or 96-well plastic plates.
(§2) Cell proliferation kit II (Roche Inc.) is based on colorimetric change of the yellow tetrazolium salt XTT in orange formazan dye by the respiratory chain of viable cells (Roehm, N W, et al., J Immunol Methods 142:257-265, 1991). Cells seeded at a concentration of 5000/well in 100 μl medium in a 96-well plate were treated with different drugs in the given concentration. After 24 or 48 h the cells were incubated, according to the manufacturer's protocol, with XTT labelling mixture. After 4 h the formazan dye is quantified using a scanning multiwell spectrophotometer with a 495-nm filter. The absorbance is directly correlated with the number of viable cells. The standard absorbance curve was drawn by means of untreated cells seeded at a concentration of from 1000 to 10 000 cells/well with an increasing rate of 1000 cells/well. All standards and experiments were performed in triplicates.
(§3) Cells of said cell lines were seeded in 96-well plates (25 000 cells/well, medium volume per well was 100 μl), in […] medium supplemented with fetal calf serum. After 24 h picropodophyllin and the derivatives alpha-apopicropodophyllin and beta-apopicropodo-phyllin were added at different concentrations and the cells were incubated for 72 h. Cell viability was then assayed (see above). […] The results are based on 3 different experiments.
(§4) The leukemia cell lines K562/S, […], HL60/0 and HL60/Nov were cultured in 96-well plates as described in Experiment 7. After 24 h, the cells were treated for 72 h with different concentrations of the anti-cancer agent vincristine, with and without co-incubation with 0.05 μM picropodophyllin. […] Cell viability was then assayed. IC50 values for each inhibitor and cell line are shown below (Table 8). The results are based on 3 different experiments.

[3] = biological target: EGFR tyrosine kinase (Homo sapiens, UniProt P00533); assay: In vitro tyrosine kinase assay: substrate phosphorylation by EGFR, cell-free; type: biochemical; settings: FIG. 3
Sequence of EGFR tyrosine kinase (P00533 25-1210): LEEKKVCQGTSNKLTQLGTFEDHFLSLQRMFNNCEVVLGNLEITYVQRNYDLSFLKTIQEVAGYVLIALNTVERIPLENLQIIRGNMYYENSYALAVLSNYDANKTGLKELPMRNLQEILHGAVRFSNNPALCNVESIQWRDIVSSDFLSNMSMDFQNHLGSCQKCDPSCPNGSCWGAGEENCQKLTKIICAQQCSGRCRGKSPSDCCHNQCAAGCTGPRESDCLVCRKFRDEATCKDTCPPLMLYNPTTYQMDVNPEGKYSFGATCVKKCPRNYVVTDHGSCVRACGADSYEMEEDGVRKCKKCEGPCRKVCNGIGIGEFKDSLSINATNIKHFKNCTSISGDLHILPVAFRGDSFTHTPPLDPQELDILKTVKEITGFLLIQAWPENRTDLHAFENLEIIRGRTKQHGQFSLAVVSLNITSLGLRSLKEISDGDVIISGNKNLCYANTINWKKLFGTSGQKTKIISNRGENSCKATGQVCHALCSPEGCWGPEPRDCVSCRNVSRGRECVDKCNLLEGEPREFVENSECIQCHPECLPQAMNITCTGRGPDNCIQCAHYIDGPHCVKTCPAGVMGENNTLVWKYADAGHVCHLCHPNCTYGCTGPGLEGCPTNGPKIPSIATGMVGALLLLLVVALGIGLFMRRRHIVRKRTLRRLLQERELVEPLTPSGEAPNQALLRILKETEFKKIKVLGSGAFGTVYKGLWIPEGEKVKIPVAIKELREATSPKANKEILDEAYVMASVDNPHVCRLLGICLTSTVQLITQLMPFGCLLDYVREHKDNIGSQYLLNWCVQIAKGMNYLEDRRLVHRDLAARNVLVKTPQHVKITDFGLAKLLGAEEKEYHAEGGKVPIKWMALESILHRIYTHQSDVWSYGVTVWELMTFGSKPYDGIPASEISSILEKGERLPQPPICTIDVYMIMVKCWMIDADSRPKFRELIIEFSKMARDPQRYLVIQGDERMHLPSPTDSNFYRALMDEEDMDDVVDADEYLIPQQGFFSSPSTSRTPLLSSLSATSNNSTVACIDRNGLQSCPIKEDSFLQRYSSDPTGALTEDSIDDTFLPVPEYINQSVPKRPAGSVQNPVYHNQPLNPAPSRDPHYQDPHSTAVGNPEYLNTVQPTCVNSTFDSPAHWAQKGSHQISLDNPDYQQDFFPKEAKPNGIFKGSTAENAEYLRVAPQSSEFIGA

[4] = system: BE (melanoma cells) xenografts; assay: Tumor growth of BE xenografts in nude mice; type: in vivo; settings: 28 mg/kg i.p. daily 4-6 days, then 4-6 days without treatment, FIG. 6
Experimental: Control mice were treated with the solvent. 3-6 animals were treated in each group.
Because of the toxicity of podophyllotoxin and deoxypodophyllotoxin, we only used picropodophyllin to analyze effects on tumor xenografts. For this purpose ES-1 (Ewing's sarcoma cells) and BE (melanoma cells) xenografts were established in nude mice. When the ES-1 and BE tumors started growing subcutaneously and were measurable, mice were treated daily with intraperitoneal injections of picropodophyllin (28 mg/kg, which was required for giving an average concentration above 0.05 μM of picropodophyllin in the blood plasma) or 80% DMSO in saline as a carrier for 4-6 days, followed by 4-6 days without treatment. The mice were then killed and the tumors analyzed by an experienced pathologist.

[5] = system: HL60/0 acute myeloid leukemia cells; assay: Leukemia cell viability, HL60/0; type: cell-based, human; settings: Homo sapiens, HL-60; HL60, 72 h; read-out: IC50 for cell viability
Experimental: as §1, §2, §3, §4

[6] = system: leukemia cell lines (K562/S, K562/Vcr30, HL60/0 and HL60/Nov); assay: Leukemia cell viability, summary over the four cell lines; type: cell-based, human; settings: 72 h
Experimental: as §1
as §2, with “After 24 or 48 h the cells were incubated, according to the manufacturer's protocol, with XTT labelling mixture.” left out, “All standards and experiments were performed in triplicates.” left out

[7] = system: K562/S chronic myeloid leukemia cells; assay: Leukemia cell viability, K562/S; type: cell-based, human; settings: Homo sapiens, 72 h, read-out: IC50 for cell viability
Experimental: as §1, §2, §3, §4

[8] = system: HL60/Nov acute myeloid leukemia cells; assay: Leukemia cell viability, HL60/Nov; type: cell-based, human; settings: Homo sapiens, HL-60, 72 h, read-out: IC50 for cell viability
Experimental: as §1, §2, §3, §4

[9] = system: β-tubulin; settings: in vitro; read-out: IC50, binding to β-tubulin; cited from earlier work
[10] = system: DWB malignant melanoma cell line; assay: Cell viability (XTT), DWB; type: cell-based; settings: 48 h
Experimental: as §2
12 different types of cell lines were seeded in 96-well plates (medium volume in a well was 100 μl), at a concentration of 10,000 cells/cm^2 in Minimal Essential Medium supplemented with fetal calf serum. When the cells had reached a concentration of 65,000 cells/cm^2, they were treated with different doses of podophyllotoxin and picropodophyllin for 48 h. Cell viability was then assayed (see above). […]

SMILES | Average concentration in the blood plasma [1] | IC50 [2] | Interference with substrate phosphorylation of EGFR tyrosine kinase [3] | Effect on tumor growth [4] | IC50 [5] | IC50 ([6]; Homo sapiens, read-out: Concentration needed to cause 50% cell death) | Cell death in the tumor cells ([6]; leukemia cell lines, 0.05 μM) | IC50 [7] | IC50 [8] | IC50 [9] | EC50 [10]
COc1cc([C@@H]2c3cc4c(cc3[C@H](O)[C@H]3COC(=O)[C@@H]23)OCO4)cc(OC)c1OC [Picropodophyllin, picropodophyllin] | above 0.05 μM | […] | failed to interfere | significantly inhibited growth | 170 nM | 110 to 320 nM | did not cause any detectable cell death | 320 nM | 110 nM | – | –
COc1cc([C@@H]2c3cc4c(cc3[C@H](O)[C@H]3COC(=O)[C@H]23)OCO4)cc(OC)c1OC [Podophyllotoxin, podophyllotoxin] | – | – | – | – | – | – | – | – | – | […] | 40 nM
